Experimental data taken from paper PMC5234776, “Study of the Antimicrobial Activity of Tilapia Piscidin 3 (TP3) and TP4 and Their Effects on Immune Functions in Hybrid Tilapia (Oreochromis spp.)” (PLoS ONE, 2017).
Read-outs that look alike come from different tables or passages of the source. Peptide text beside a SMILES is read from it.

Assays:
[1] = tested on: tilapia; experiment: Toxicity of peptide alone, tilapia survival; format: in vivo, tilapia (Oreochromis spp.); settings: abdominal cavity, no infection, seven days (S2 Fig)
Method: The antimicrobial activities of TP3 and TP4 peptides were analyzed in tilapia infected with lethal amounts of bacteria. Different amounts of V. vulnificus were injected into the abdominal cavities of the fish, and survival rates were recorded as cumulative percentages (S1 Fig). To determine whether TP3 and TP4 had any toxic effects on the tilapia, we injected different doses of TP3 and TP4 (0.1, 1, 10, 20, 30, 40, or 50 μg/fish) into the abdominal cavity and recorded the cumulative survival percentage of the fish (S2 Fig). We also co-treated tilapia with different doses (0.1, 1, 10, 20 μg/fish) of TP3 or TP4 combined with 2x10^4 CFU of V. vulnificus to evaluate tilapia survival following treatment. […] After 14, 21, or 28 days following the first co-treatment with TP3, the tilapia that survived in the 20 μg/fish TP3 experimental group were injected with a second dose of 2x10^4 CFU of V. vulnificus, and the survival rates were measured for another seven days. […] In the co-treatment experiments, at 14, 21, or 28 days after the first co-treatment with TP4, the surviving tilapia in the 20 μg/fish TP4 experimental group received a second injection of 2x10^4 CFU of V. vulnificus, and the survival rates were measured for another seven days.
Supplementary file pone.0169678.s002.pdf: S2 Fig Determination of tilapia survival rates seven days after injection with different concentrations of TP3 or TP4. (a) The survival rates of tilapia injected with TP3 at a dose of 0.1 μg/fish, 1 μg/fish, or 10 μg/fish. (b) The percentage of tilapia surviving after injection with TP4 at 0.1 μg/fish, 1 μg/fish, or 10 μg/fish. (c) The percentage of tilapia surviving after injection with TP3 at 20 μg/fish, 30 μg/fish, 40 μg/fish, or 50 μg/fish. (d) The percentage of tilapia surviving after injection with TP4 at 20 μg/fish, 30 μg/fish, 40 μg/fish, or 50 μg/fish. The control group (control) was injected with PBS alone. (PDF) Click here for additional data file.

[2] = in vivo; set-up: species or system tilapia (Oreochromis hybrids, Tilapia spp.); settings: male, iv, 0.2 mg/kg
Method: The peptide half-life of TP3 and TP4 were investigated in male tilapia (Oreochromis hybrids, Tilapia spp., with a mean body length of 32.33±1.5 cm and a mean body weight of 1117±78.2 g) after intravenous administration of a single dose of 0.2 mg/kg of peptide. The TP3 and TP4 concentrations in serum samples were determined at 10, 30, 60, 120, 180, 240, 300, and 360 minutes for TP3 and at 10, 60, 120, 180, 240, 300, and 360 minutes after dosing for TP4. At each sample collection time point, we anesthetized three fish and collected their blood. The blood was centrifuged to obtain fish serum, which was assessed by liquid chromatography-mass spectrometry/mass spectrometry (LC-MS/MS) at Mission Biotech (Taipei, Taiwan).

[3] = tested on: V. vulnificus; experiment: MIC, broth microdilution (NCCLS); format: cell-based, Vibrio vulnificus; settings: 28°C
Method: (§1) We determined the MICs of TP3, TP4, kanamycin, and ampicillin against V. vulnificus using a broth microdilution method in accordance with NCCLS guidelines. To measure the killing efficiencies of TP3 and TP4 against V. vulnificus, we prepared TP3 or TP4 solutions at MIC concentrations of 0.5×, 1×, and 2× and these solutions with equal volumes of V. vulnificus (1×10^6 CFU/ml) to each well of a 96-well plate. The plates were incubated at 28°C for 0, 60, 120, 180, 360, 540, 720, or 1440 minutes, and after the incubation period, 50 μL of each bacterial solution were plated on a TCBS plate to obtain viable cell counts. Broth grown in the absence of peptides was used as a negative control. The results were determined using triplicate independent experiments.

[4] = tested on: V. vulnificus; experiment: microbe, parasite or virus in culture; format: cell-based, Vibrio vulnificus; settings: V. vulnificus
Method: as §1
First, we determined the minimum MICs and minimum bactericidal concentrations (MBCs) of TP3 or TP4 against V. vulnificus.

[5] = tested on: V. vulnificus; experiment: microbe, parasite or virus in culture; format: cell-based, Vibrio vulnificus
Method: (§2) To understand the effects of pH on TP3 or TP4, the reagents were dissolved in ddH2O, 1 M HCl or 1 M NaOH to obtain solutions with different pH values. For the temperature-dependent functional study, the TP3 or TP4 was added to a solution in a water bath (Basic life, model BL3002, Taiwan) and incubated for 60 minutes at different temperatures (40, 60, 80, or 100°C). To evaluate the effects of TP3 and TP4 on pepsin and trypsin function, each peptide was incubated for 10 or 30 minutes with different concentrations of pepsin or trypsin (0.1, 1, or 10 μg/ml), and we determined the MIC values after incubating these solutions with cells at 28°C for 720 minutes, according to a previously described MIC experimental protocol.

[6] = tested on: V. vulnificus; experiment: microbe, parasite or virus in culture; format: cell-based, Vibrio vulnificus; remark: listed apart in the source
Method: as §2, with “[…],” for “and we determined the MIC values after incubating these solutions with cells at 28°C for 720 minutes,”

[7] = tested on: V. vulnificus; experiment: Membrane perturbation, NPN uptake; format: cell-based, Vibrio vulnificus; settings: 1×10^6 CFU/ml, 30 minutes, 40 μmol/L NPN; kanamycin: slight increase only
Method: We used previously reported methods for the membrane perturbation assay. Briefly, a single colony of V. vulnificus was cultured in TSB medium for 480 minutes at 28°C, and the adjusted culture (1×10^6 CFU/ml) was aliquoted into different tubes with or without TP4 or TP3. After incubating the cells for 30 minutes, we added 40 μmol/L 1-N-phenylnaphthylamine (NPN) and continued to incubate the cells. Tubes containing PBS with NPN and bacterial cells with NPN served as controls. The NPN fluorescence intensity was detected using a fluorescence ELISA reader. All experiments were performed in triplicate, and the results are expressed as means with standard errors (SE).

[8] = tested on: V. vulnificus; experiment: Synergy of TP3 or TP4 with ampicillin or kanamycin; format: cell-based, Vibrio vulnificus; settings: V. vulnificus 5×10^3 CFU/ml, 28°C, 720 minutes, 600-nm absorbance
Method: We used the co-treatment method to test combinations of TP3 or TP4 with ampicillin or kanamycin to identify synergistic effects. […] The plates were incubated at 28°C for 720 minutes, and after the incubation period, the concentrations of the bacterial solutions were detected using a spectrometer (600-nm absorbance).

[9] = agent dissolved in pH = 4 solution
[10] = agent dissolved in pH = 6 solution
[11] = agent dissolved in pH = 8 solution
[12] = agent dissolved in pH = 10 solution
[13] = agent dissolved in pH = 12 solution
[14] = agent incubated 60 minutes at 40°C
[15] = agent incubated 60 minutes at 60°C
[16] = agent incubated 60 minutes at 80°C
[17] = agent incubated 60 minutes at 100°C

CC[C@H](C)[C@H](NC(=O)[C@H](C)NC(=O)[C@H](CCCCN)NC(=O)CNC(=O)[C@H](C)NC(=O)[C@H](CO)NC(=O)[C@H](Cc1ccccc1)NC(=O)[C@H](CC(C)C)NC(=O)CNC(=O)CNC(=O)[C@@H](NC(=O)[C@@H](NC(=O)[C@H](Cc1cnc[nH]1)NC(=O)[C@H](Cc1cnc[nH]1)NC(=O)[C@@H](NC(=O)[C@@H](N)Cc1ccccc1)[C@@H](C)CC)[C@@H](C)CC)[C@@H](C)CC)C(=O)N[C@@H](Cc1cnc[nH]1)C(=O)N[C@@H](CCCNC(=N)N)C(=O)N[C@@H](CC(C)C)C(=O)N[C@H](C(=O)N[C@@H](CCCNC(=N)N)C(=O)N[C@@H](CCCNC(=N)N)C(=O)N[C@@H](CCCNC(=N)N)C(=O)N[C@@H](CCCNC(=N)N)C(=O)N[C@@H](CCCNC(=N)N)C(=O)O)[C@@H](C)CC [TP4, tilapia piscidin 4] (H-FIHHIIGGLFSAGKAIHRLIRRRRR-OH)
63.3%: percent survival after injection of peptide only ([1]; 40 μg/fish)
30.0%: percent survival after injection of peptide only ([1]; 50 μg/fish)
56.7%: percent survival after injection of peptide only ([1]; 30 μg/fish)
1 h: half-life [2]
70.0%: percent survival after injection of peptide only ([1]; 20 μg/fish)

NC[C@H]1O[C@H](O[C@H]2[C@H](O)[C@@H](O[C@H]3O[C@H](CO)[C@@H](O)[C@H](N)[C@H]3O)[C@H](N)C[C@@H]2N)[C@H](O)[C@@H](O)[C@@H]1O [kanamycin, reference compound]
250 µg/mL: MBC [5, 13] | MIC [5, 13]
100 µg/mL: concentration that increased NPN fluorescence [7]
halved: change of the MIC of the antibiotic in combination with TP3 or TP4 [8]
31.2 µg/mL: MIC [3] | MBC [4] | MBC ([5]; Control of the pH series (pH 7)) | MBC [5, 9] | MIC [5, 9] | MBC [5, 10] | MIC [5, 10] | MBC [5, 11] | MIC [5, 11] | MBC [5, 12] | MIC [5, 12] | MBC ([6]; RT) | MIC ([6]; RT) | MBC [6, 14] | MIC [6, 14] | MBC [6, 15] | MIC [6, 15] | MBC [6, 16] | MIC [6, 16]
62.5 µg/mL: MBC [6, 17] | MIC [6, 17]

CC1(C)S[C@@H]2[C@H](NC(=O)[C@H](N)c3ccccc3)C(=O)N2[C@H]1C(=O)O [ampicillin, reference compound]
3.9 µg/mL: MIC [3] | MBC [4] | MBC ([5]; Vibrio vulnificus, agent dissolved in pH = 4 solution, read-out: MBC) | MIC ([5]; Vibrio vulnificus, agent dissolved in pH = 4 solution, read-out: MIC) | MBC ([5]; Vibrio vulnificus, agent dissolved in pH = 6 solution, read-out: MBC) | MIC ([5]; Vibrio vulnificus, agent dissolved in pH = 6 solution, read-out: MIC) | MBC ([5]; Vibrio vulnificus, agent dissolved in pH = 8 solution, read-out: MBC) | MIC ([5]; Vibrio vulnificus, agent dissolved in pH = 8 solution, read-out: MIC) | MBC ([5]; Vibrio vulnificus, agent dissolved in pH = 10 solution, read-out: MBC) | MIC ([5]; Vibrio vulnificus, agent dissolved in pH = 10 solution, read-out: MIC) | MBC ([5]; Vibrio vulnificus, pH 7, Control of the pH series (pH 7), read-out: MBC) | MIC ([5]; Vibrio vulnificus, pH 7, Control of the pH series (pH 7), read-out: MIC) | MBC ([6]; Vibrio vulnificus, 1 h, agent incubated 60 minutes at 40°C, read-out: MBC) | MIC ([6]; Vibrio vulnificus, 1 h, agent incubated 60 minutes at 40°C, read-out: MIC) | MBC ([6]; Vibrio vulnificus, RT, read-out: MBC) | MIC ([6]; Vibrio vulnificus, RT, read-out: MIC) | MBC [6, 15] | MIC [6, 15] | MBC [6, 16] | MIC [6, 16] | MBC [6, 17] | MIC [6, 17]
3.91 µg/mL: MIC ([3]; Vibrio vulnificus, read-out: MIC) | MBC ([4]; Vibrio vulnificus, read-out: MBC)
very stable: thermostability by MIC and MBC values ([6]; from 40°C to 100°C, in words)
15.6 µg/mL: MBC ([5]; Vibrio vulnificus, agent dissolved in pH = 12 solution, read-out: MBC) | MIC ([5]; Vibrio vulnificus, agent dissolved in pH = 12 solution, read-out: MIC)
halved: change of the MIC of the antibiotic in combination with TP3 or TP4 [8]
